The record followed here is ChEMBL document CHEMBL3877311, “Discovery of a novel series of N-hydroxypyridone derivatives protecting astrocytes against hydrogen peroxide-induced toxicity via improved mitochondrial functionality” (Bioorg Med Chem, 2017).

One may read the IC50 as the concentration needed to halve the response being measured.

The source made the active and inactive calls. No cut-off for these calls is given here.

Series [1] relates to Astrocyte. The series can be described thus: Inhibition of H2O2-induced mitochondrial metabolic dysfunction in Sprague-Dawley rat primary astrocytes at 0.001 to 10 uM by resazurin-dye based presto blue assay relative to control. Type of series: functional.
Series [2] has as its system Astrocyte. The series can be described thus: Cytoprotective activity in Sprague-Dawley rat primary astrocytes assessed as inhibition of H2O2-induced mitochondrial membrane depolarization at 1 uM measured every 5 mins for 2 hrs by TMRM dye based fluorescence assay. Type of series: functional, cell-based.
The nature of series [3]: Cytoprotective activity in Sprague-Dawley rat primary astrocytes assessed as inhibition of H2O2-induced cell death at 0.001 to 10 uM by LDH release assay relative to control. Type of series: functional, Astrocyte.
A short description of series [4]: Cytoprotective activity in Sprague-Dawley rat primary astrocytes assessed as inhibition of H2O2-induced cell death by LDH release assay. It is filed as functional, cell-based. Particulars: Astrocyte. For orientation: LDH leaks from cells whose membrane has failed.
The subject of series [5] is Astrocyte. The series can be described thus: Inhibition of H2O2-induced mitochondrial metabolic dysfunction in Sprague-Dawley rat primary astrocytes by resazurin-dye based presto blue assay. Type of series: functional, cell-based. (In general: The colour change of resazurin is a common sign of viable cells or microbes.)
A short description of series [6]: Effect on basal oxygen consumption rate in Sprague-Dawley rat primary astrocytes at 1 uM. The following applies: astrocyte. It is filed as ADME, cell-based.
Series [7] has as its system Astrocyte. The series can be described thus: Inhibition of H2O2-induced mitochondrial metabolic dysfunction in Sprague-Dawley rat primary astrocytes assessed as stimulation of glycolytic metabolism at 1 uM. Type of series: functional, cell-based.
The test system of series [8] is Astrocyte. The series can be described thus: Inhibition of H2O2-induced mitochondrial metabolic dysfunction in Sprague-Dawley rat primary astrocytes assessed as stimulation of extracellular acidification rate at 1 uM. It is filed as functional, cell-based.
Series [9] deals with Astrocyte. The series can be described thus: Cytoprotective activity in Sprague-Dawley rat primary astrocytes assessed as inhibition of H2O2-induced decrease in oxygen consumption rate at 1 uM. Type of series: functional, cell-based.
A short description of series [10]: Effect on basal extracellular acidification rate in Sprague-Dawley rat primary astrocytes at 1 uM. Type of series: ADME, cell-based. The following applies: astrocyte.
A short description of series [11]: Effect on ATP turn over-linked oxygen consumption rate in Sprague-Dawley rat primary astrocytes at 1 uM. The following applies: astrocyte. It is filed as ADME, cell-based.
The nature of series [12]: Induction of mitochondrial membrane depolarization in Sprague-Dawley rat primary astrocytes at 1 uM measured every 5 mins for 2 hrs by TMRM dye based fluorescence assay. Type of series: cell-based. Particulars: astrocyte.
Another series is filed under the species Rattus norvegicus. The series can be described thus: Cytotoxicity against Sprague-Dawley rat primary astrocytes assessed as cell death up to 10 uM by LDH release assay. Type of series: toxicity. Particulars: astrocyte.

For `Cc1cc(C2CCCCC2)n(O)c(=O)c1` [CICLOPIROX], the values for the Imax (with Astrocyte [1]; in series [3]) were 43.72% and 50.3%, respectively. In addition, the inhibition result with Astrocyte [2] is “Active”. Besides, the half-maximal inhibitory concentration (IC50) turned out to be 250 nM in series [4] and 330 nM in the series with Astrocyte [5].
`COc1ccccc1-c1ccc(-c2cc(C)cc(=O)n2O)cc1`: the Activity result (in [6]; in [10]; in series [11]; in [12]; in the series filed under Rattus norvegicus) was “Non-Toxic” each time. The Imax with Astrocyte [1] is 58.6%; in [3], 58.8%. Besides, the inhibition result in the series with Astrocyte [7], in the series with Astrocyte [8], with Astrocyte [2] and in the series on Astrocyte [9] was “Active” throughout. The half-inhibitory concentration (IC50) in series [4] came to 156 nM; in the series on Astrocyte [5], 340 nM.
For the compound `Cc1cc(-c2cccc(F)c2)n(O)c(=O)c1`, in the series with Astrocyte [1], the Imax was 0.75%.
